For orientation: IC50 means the concentration that inhibits the measured activity by half. A low value points to inhibition by little substance.

This is an account of results in patent publication US10611748B2, “Xanthone derivatives for the treatment of hepatitis B virus disease” (Hoffmann-La Roche Inc., priority 2017, dated 2020).

The structures appear in SMILES notation.

The subject of this assay is extracellular HBeAg level (surrogate marker for cccDNA) in HepDES19 cells. The assay is described as follows: HepDES19 primary screen assay. The settings on record: Hepatitis B virus, 120 h, 5 days compound incubation, HBeAg ELISA. It counts as cell-based, HBV. The text has this:
The assay was employed to primarily screen for novel cccDNA inhibitors. HepDES19 is an engineered cell line which contains a 1.1 unit length HBV genome, and pgRNA transcription from the transgene is controlled by Tetracycline (Tet). In the absence of Tet, pgRNA transcription will be induced, but HBV e antigen (HBeAg) could not be produced from this pgRNA due to the fact that the very short leader sequence before the HBeAg start codondisrupted the start codon. Only after cccDNA is formed, the missing leader sequence and start codon mutation would be restored from the 3′-terminal redundancy of pgRNA, and then HBeAg could be synthesized. Therefore, HBeAg could be used as a surrogate marker for cccDNA (Zhou, T. et al., Antiviral Res(2006), 72(2), 116-124; Guo, H. et al., J. Virol (2007), 81(22), 12472-12484).
HepDES19 cells were seeded at 2×10^6 cells per T150 flask and cultured with the culture medium (Dulbecco's Modified Eagle Medium: Nutrient Mixture F-12 (DMEM:F12, Gibco Cat. 11320-82), 10% Fetal Bovine Serum (FBS, Clontech Cat. 631101), 0.1 mM Non-Essential Amino Acids Solution (NEAA, Gibco Cat. 11140-050), 50 μg/mL Penicillin-Streptomycin (PS, Invitrogen Cat. 15140-163), 500 μg/mL Geneticin (G418, Invitrogen Cat. 10131-027) containing 3 μg/mL Tet (Sigma, Cat. 87128) for 5 days. Cells were then seeded at 4×10^6 cells per T150 in the same culture medium as described above in the absence of Tet for 8 days. Cells were then harvested and frozen at density of 2×10^6 cells per mL. For compound testing, the frozen cells were thawed and seeded into 96-well plates at a density of 6×10^4 cells per well. At 24 hrs after seeding, half log serial dilutions of compounds made with Dimethyl sulfoxide (DMSO, Sigma, Cat. D2650) were further diluted with the same culture medium as described above before they were added to the cells to reach desired final compound concentrations and 1% DMSO concentration. Plates were then incubated at 37° C. for another 5 days before measurement of HBeAg level and cell viability. Extracellular HBeAg level were measured with enzyme-linked immunosorbent assay (ELISA) kit (Shanghai Kehua Diagnostic Medical Products Co., Ltd). Cell viability was assessed using Cell Counting Kit-8 (Donjindo, Cat. CK04-20). IC50 values were derived from the dose-response curve using 4 parameter logistic curve fit method.
The compounds of the present invention were tested for their capacity to inhibit extracellular HBeAg level as described herein.
In turn, `O=C(O)[C@H]1CN(c2ccc3c(=O)c4cccc(Cl)c4oc3c2)C[C@@H]1c1ccc(F)cc1` [Example 15, (3R,4S)-1-(5-chloro-9-oxo-xanthen-3-yl)-4-(4-fluorophenyl)pyrrolidine-3-carboxylic Acid] displayed a 50% inhibitory concentration (IC50) of 7.39 µM.
The figure for `O=C(O)[C@@H]1CCN(c2ccc3c(=O)c4cccc(Cl)c4sc3c2)C1` [Example 73, (3R)-1-(5-chloro-9-oxo-thioxanthen-3-yl)pyrrolidine-3-carboxylic Acid] is 2.6 µM; for `O=C1CCCN1c1ccc2c(=O)c3cccc(F)c3oc2c1` [Example 23, 1-(5-fluoro-9-oxo-xanthen-3-yl)pyrrolidin-2-one] it is 0.83 µM.
For `O=C(O)C1CCCN(c2ccc3c(=O)c4cccc(Cl)c4oc3c2)C1` (stereo not drawn) [Example 14, 1-(5-chloro-9-oxo-xanthen-3-yl)piperidine-3-carboxylic acid] the value was 5.79 µM; for `O=C(O)C1CCN(c2ccc3c(=O)c4cc(F)cc(Cl)c4oc3c2)C1` (stereo not drawn) [Example 71, 1-(5-chloro-7-fluoro-9-oxo-xanthen-3-yl)pyrrolidine-3-carboxylic Acid], 13 µM.
`CC1c2ccc(N3CCCC3)cc2Oc2c(Cl)cccc21` (stereo not drawn) [Example 54, 1-(5-chloro-9-methyl-9H-xanthen-3-yl)pyrrolidine] yielded an IC50 of 1.6 µM.
For `O=c1c2ccc(N3CCCC3)cc2oc2c(F)cc(Cl)cc12` [Example 35, 2-chloro-4-fluoro-6-pyrrolidin-1-yl-xanthen-9-one] the value was 16.7 µM; for `Fc1cccc2c1Oc1cc(N3CCCC3)ccc1C21CCCO1` (stereo not drawn) [Example 52, 1-(5′-fluorospiro[tetrahydrofuran-2,9′-xanthene]-3′-yl)pyrrolidine], 14.5 µM; for `O=C(O)C1(C(F)(F)F)CCN(c2ccc3c(=O)c4cccc(Cl)c4oc3c2)C1` (stereo not drawn) [Example 19, 1-(5-chloro-9-oxo-xanthen-3-yl)-3-(trifluoromethyl)pyrrolidine-3-carboxylic Acid], 27 µM.
The figure for `O=c1c2ccc(N3CCCC3)cc2oc2c(F)cccc12` [Example 21, 5-fluoro-3-pyrrolidin-1-yl-xanthen-9-one] is 0.27 µM; for `COC1CCN(c2ccc3c(=O)c4cccc(F)c4oc3c2)C1` (stereo not drawn) [Example 33, 5-fluoro-3-(3-methoxypyrrolidin-1-yl)xanthen-9-one] it is 4.06 µM.
As for `O=c1c2ccc(N3CCCCC3)cc2oc2c(F)cccc12` [Example 9, 5-fluoro-3-(1-piperidyl)xanthen-9-one], half-maximal inhibition (IC50) was put at 0.98 µM.
The figure for `COC(=O)C1CCN(c2ccc3c(=O)c4cccc(Cl)c4oc3c2)C1` (stereo not drawn) [Example 11, Methyl 1-(5-chloro-9-oxo-xanthen-3-yl)pyrrolidine-3-carboxylate] is 1.17 µM.
The figure for `Fc1cccc2c1Oc1cc(N3CCCC3)ccc1C2` [Example 62, 1-(5-fluoro-9H-xanthen-3-yl)pyrrolidine] is 3.99 µM.
For `O=C(O)[C@H]1CCN(c2ccc3c(=O)c4cccc(Cl)c4sc3c2)C1` [Example 72, (3S)-1-(5-chloro-9-oxo-thioxanthen-3-yl)pyrrolidine-3-carboxylic Acid] the value was 3.6 µM.
In turn, `O=C(O)C1CCN(c2ccc3c(=O)c4cc(Cl)cc(Cl)c4oc3c2)C1` (stereo not drawn) [Example 70, 1-(5,7-dichloro-9-oxo-xanthen-3-yl)pyrrolidine-3-carboxylic Acid] gave a half-maximal inhibitory concentration (IC50) of 5.9 µM.
For `O=c1c2ccc(N3CCC(CO)C3)cc2oc2c(Cl)cccc12` (stereo not drawn) [Example 10, 5-chloro-3-[3-(hydroxymethyl)pyrrolidin-1-yl]xanthen-9-one] the value was 1.13 µM; for `CN(C)C(=O)C1CCN(c2ccc3c(=O)c4cccc(Cl)c4oc3c2)C1` (stereo not drawn) [Example 46, 1-(5-chloro-9-oxo-xanthen-3-yl)-N,N-dimethyl-pyrrolidine-3-carboxamide], 4.3 µM.
The figure for `Cc1cc2c(=O)c3cccc(Cl)c3oc2cc1N1CC[C@@H](C(=O)O)C1` [Example 74, (3R)-1-(5-chloro-2-methyl-9-oxo-xanthen-3-yl)pyrrolidine-3-carboxylic Acid] is 2.6 µM; for `O=c1c2ccc(N3CCCC3)nc2oc2c(F)cccc12` [Example 63, 9-fluoro-2-pyrrolidin-1-yl-chromeno[2,3-b]pyridin-5-one] it is 19.2 µM; for `O=c1c2ccc(N3CCC(c4ccncc4)C3)cc2oc2c(F)cccc12` (stereo not drawn) [Example 34, 5-fluoro-3-[3-(4-pyridyl)pyrrolidin-1-yl]xanthen-9-one] it is 6.15 µM.
For `O=c1c2ccc(N3CC[C@H](O)C3)cc2oc2c(Cl)cccc12` [Example 27, 5-chloro-3-[(3S)-3-hydroxypyrrolidin-1-yl]xanthen-9-one] the value was 1.95 µM; for `Clc1cccc2c1Oc1c(cc(Cl)c(N3CCCC3)c1Cl)C2` [Example 56, 1-(2,4,5-trichloro-9H-xanthen-3-yl)pyrrolidine], 6.28 µM; for `O=c1c2ccc(N3CC[C@@H](O)C3)cc2oc2c(Cl)cccc12` [Example 30, 5-chloro-3-[(3R)-3-hydroxypyrrolidin-1-yl]xanthen-9-one], 2.63 µM.
Regarding `CC1(C)CN(c2ccc3c(=O)c4cccc(Cl)c4oc3c2)CC1C(=O)O` (stereo not drawn) [Example 17, 1-(5-chloro-9-oxo-xanthen-3-yl)-4,4-dimethyl-pyrrolidine-3-carboxylic Acid], the IC50 amounted to 12.7 µM.
For `O=c1c2ccc(N3CCCC3)cc2oc2c(Cl)cccc12` [Example 1, 5-chloro-3-pyrrolidin-1-yl-xanthen-9-one] the value was 0.23 µM; for `O=c1c2ccc(N3CCCNCC3)cc2oc2c(F)cccc12` [Example 49, 3-(1,4-diazepan-1-yl)-5-fluoro-xanthen-9-one], 7.56 µM; for `OC1(C(F)(F)F)c2ccc(N3CCCC3)cc2Oc2c(Cl)cccc21` (stereo not drawn) [Example 59, 5-chloro-3-pyrrolidin-1-yl-9-(trifluoromethyl)xanthen-9-ol], 19.2 µM.
For `Cc1cc2c(=O)c3cccc(F)c3oc2cc1N1CCCC1` [Example 25, 5-fluoro-2-methyl-3-pyrrolidin-1-yl-xanthen-9-one], half-maximal inhibition (IC50) was put at 1.52 µM.
The figure for `O=C(C1CCN(c2ccc3c(=O)c4cccc(Cl)c4oc3c2)C1)N1CCOCC1` (stereo not drawn) [Example 65, 5-chloro-3-[3-(morpholine-4-carbonyl)pyrrolidin-1-yl]xanthen-9-one] is 3.89 µM; for `N[C@H]1CCN(c2ccc3c(=O)c4cccc(F)c4oc3c2)C1` [Example 50, 3-[(3S)-3-aminopyrrolidin-1-yl]-5-fluoro-xanthen-9-one] it is 3.12 µM; for `O=C(O)CC1CCN(c2ccc3c(=O)c4cccc(Cl)c4oc3c2)C1` (stereo not drawn) [Example 8, 2-[1-(5-chloro-9-oxo-xanthen-3-yl)pyrrolidin-3-yl]acetic Acid] it is 7.53 µM.
Consider `CN1CCN(c2ccc3c(=O)c4cccc(F)c4oc3c2)CC1` [Example 38, 5-fluoro-3-(4-methylpiperazin-1-yl)xanthen-9-one], for which the IC50 amounted to 16.1 µM.
Molecule `O=C(O)C1CCCN1c1ccc2c(=O)c3cccc(Cl)c3oc2c1` (stereo not drawn) [Example 36, 1-(5-chloro-9-oxo-xanthen-3-yl)pyrrolidine-2-carboxylic Acid] gave a 50% inhibitory concentration (IC50) of 11.5 µM.
For `CC1(C(=O)O)CCN(c2ccc3c(=O)c4cccc(Cl)c4oc3c2)C1` (stereo not drawn) [Example 16, 1-(5-chloro-9-oxo-xanthen-3-yl)-3-methyl-pyrrolidine-3-carboxylic Acid] the value was 11.2 µM; for `N[C@@H]1CCN(c2ccc3c(=O)c4cccc(F)c4oc3c2)C1` [Example 51, 3-[(3R)-3-aminopyrrolidin-1-yl]-5-fluoro-xanthen-9-one], 4.85 µM.
The figure for `FC(F)(F)C1c2ccc(N3CCCC3)cc2Oc2c(Cl)cccc21` (stereo not drawn) [Example 61, 1-[5-chloro-9-(trifluoromethyl)-9H-xanthen-3-yl]pyrrolidine] is 31 µM.
For `O=c1c2cnc(N3CCCC3)cc2oc2c(F)cccc12` [Example 45, 6-fluoro-3-pyrrolidin-1-yl-chromeno[3,2-c]pyridin-10-one] the value was 0.51 µM; for `O=C(O)C1CCN(c2ccc3c(=O)c4cccc(C(F)(F)F)c4oc3c2)C1` (stereo not drawn) [Example 37, 1-[9-oxo-5-(trifluoromethyl)xanthen-3-yl]pyrrolidine-3-carboxylic Acid], 13.4 µM.
